We go through two substances from PMC2832019, “In Vitro Metabolic and Mitogenic Signaling of Insulin Glargine and Its Metabolites” (PLoS ONE, 2010).

The subject of experiment [1] is human IR-A. The experiment in a line: Competitive receptor binding (SPA), IR-A. How it is done: (§1) The binding of the different insulins to the human IR-A and IR-B was analyzed in a competitive binding assay using the scintillation proximity assay as previously described, [30]. […] Briefly, cells were grown to confluence and gently detached, transferred to a centrifugation tube followed by centrifugation for 10 minutes at 600×g at 4°C. The pellet was resuspended in ice-cold 2.25 STM buffer (2.25 mol/L sucrose, 5 mmol/L Tris-HCl pH 7.4, 5 mmol/L MgCl2, 1x Complete Protease Inhibitor) and disrupted using a hand-held Dounce homogenizer followed by sonication. This homogenate was transferred to a centrifugation tube, overlaid with 0.8 STM buffer (0.8 mol/L sucrose, 5 mmol/L Tris-HCl pH 7.4, 5 mmol/L MgCl2, 1x Complete Protease Inhibitor) and centrifuged for 90 minutes at 100 000×g at 4°C. The emerging pellicle at the interface was collected, transferred to a new tube and washed two times with PBS by centrifugation for 10 minutes at 1500×g. The final pellet was resuspended in a small volume of dilution buffer (50 mmol/L Tris-HCl pH 7.4, 5 mmol/L MgCl2, 1x Complete Protease Inhibitor) and homogenized with a Dounce homogenizer. These plasma membrane preparations were stored until usage at –80°C.
(§2) Binding experiments were conducted in 96-well microplates. Per well 2 µg of membranes were incubated with 0.25 mg wheat germ agglutinin polyvinyltoluene polyethylenimine SPA beads, 100 pmol/L A14[^125I]-insulin and various concentrations of unlabeled insulins in a binding buffer containing 0.05 mol/L Tris-HCl pH 7.8, 0.15 mol/L NaCl, 0.1% BSA, Complete Protease Inhibitor for 12 hours at room temperature (23°C). The radioactivity was measured at equilibrium in a microplate scintillation counter (Wallac Microbeta, Freiburg, Germany).
(§3) For each experiment, IC50 or EC50 values were obtained using the 4-parameter logistic model according to Ratkowsky and Reedy (1986). The adjustment was obtained by non-linear regression using the Levenberg-Marquardt algorithm in SAS v9.1.3 software via Biost@t-Speed V2.0-LTS internal application. If necessary, lower and upper asymptotes were set to 0 and 100, respectively.
(§4) The binding of a constant concentration of [^125I]insulin to plasma membranes from CHO cells overexpressing either IR-A or IR-B was measured in presence of increasing concentrations of unlabeled competing ligand after incubation at room temperature for 12 h. All data has been corrected for non-specific binding and are expressed as percentage of [^125I]insulin in absence of competing ligand. To analyze the insulin-stimulated activation and subsequent autophosphorylation of the insulin receptor CHO cells overexpressing the human IR-A (C) or IR-B (D) were stimulated for 15 min at 37°C with increasing concentrations of peptides, then the cells were fixed with 3.7% PFA and the amount of phosphotyrosines was analyzed via In-Cell Western. The data represent mean values ± SEM of at least 3 individual experiments measured in quadruplicate.

Experiment [2] concerns human IR-B. The experiment in a line: Competitive receptor binding (SPA), IR-B. How it is done:
as §1, §2, §3, §4

The test system of experiment [3] is human IR-A. The experiment in a line: IR-A autophosphorylation (In-Cell Western). It counts as cell-based. As to conditions: CHO cells overexpressing IR-A, 15 min at 37°C, In-Cell Western; means ± SEM, at least three times; read-out: IR-A auto-phosphorylation EC50.
From the text: (§5) CHO cells expressing either the IR-A or the IR-B isoform were used for IR autophosphorylation assays using In-Cell Western. For the analysis of IGF1R autophosphorylation the receptor was overexpressed in a mouse embryo fibroblast 3T3 Tet off cell line (BD Bioscience, Heidelberg, Germany) that was stably transfected with IGF1R tetracycline-regulatable expression plasmid resulting in the expression of ∼2.6×10^5 IGF1R per cell (as determined by FACS analysis, unpublished data). In order to determine the receptor tyrosine phosphorylation level, cells were seeded into 96-well plates and grown for 48 h. Cells were serum starved with serum-free medium αMEM (PAN Biotech GmbH, Aidenbach, Germany) for 3–4 h. […] After incubation the medium was discarded and the cells were fixed in 3.75% freshly prepared para-formaldehyde for 20 min. Cells were permeabilized with 0.1% Triton-X-100 in PBS for 20 min. Blocking was performed with Odyssey blocking buffer (LI-COR, Bad Homburg, Germany) overnight at 4°C. Anti-pTyr 4G10 (Millipore, Schwalbach, Germany) was incubated for 2 h at room temperature. After incubation of the primary antibody, cells were washed with PBS+0.1% Tween20. The secondary anti-mouse-IgG-800-CW antibody (Rockland, Gilbertsville, PA, USA) was incubated for 1 h. Results were normalized by the quantification of DNA with TO-PRO3 dye (Invitrogen, Karlsruhe, Germany). Data were obtained as relative units (RU) and are presented as fold over basal.
as §3, §4
(§6) Insulin receptor autophosphorylation was studied using CHO cells overexpressing either IR-A or IR-B. For detection an immunocytochemical microplate assay (In-Cell Western) based on two-colour fluorescence was applied.

For experiment [4], the system named is human IR-B. The experiment in a line: IR-B autophosphorylation (In-Cell Western). It counts as cell-based. As to conditions: CHO cells overexpressing IR-B, 15 min at 37°C, In-Cell Western; means ± SEM, at least three times; read-out: IR-B auto-phosphorylation EC50.
From the text: as §5, §3, §4, §6

The next experiment concerns the target human IGF1R. Nature of the experiment: Competitive binding, IGF1R. To be noted: [^125I]IGF-1 as radioactive ligand; means ± SEM, at least three times; read-out: IGF1R affinity IC50. How it is done: as §2, §3
Figure 4 Activity of insulin analogs on the human IGF1R and mitogenic potential in Saos-2 cells. Analysis of binding to the human IGF1R using [^125I]IGF-1 as radioactive ligand (A) and analysis of the insulin-stimulated autophosphorylation of the human IGF1R overexpressed in MEF cells (B) were done as described in figure 2 and Materials and Methods. Data are given as means ± SEM. […] Confluent cells were starved for 4 h and then incubated for 19 h with increasing concentrations of IGF-1, insulin or analog in serum free medium. [^14C]thymidine was added for further 6 h and the radioactivity measured in a Wallac Micro Scintillation counter. Data are given as means ± SEM from octuplicate sample.

Experiment [5] concerns MCF-7 cells, HCT-116 (colorectal cancer) and PC-3 (prostate cancer) cells. To be noted: ref [49]; cited from earlier work. From the text: A correlation between IGF1R autophosphorylation and cell proliferation has been recently assumed by Shukla et al., who observed an enhanced growth of the malignant cell line MCF7 after insulin glargine stimulation. The authors have observed 10% and 50% increases of cellular proliferation at 0.31 and about 15 nmol/L. […] Unfortunately, no dose-response curve of IGF1R autophosphorylation as well as no proliferation data from siRNA knockdown of IR have ...

Regarding “IGF-2: IGF-2 obtained from R&D Systems and Cell Sciences”, in the experiment with human IR-A [1] (IR-A relative to IR-B), the “higher affinity for IR-A than IR-B” value was 7.5 fold. For the same substance, the “IR-A binding relative to IGF-1 and human insulin” value in the experiment on human IR-A [1] (IR-A, in words) is given as “higher affinity than IGF-1 but with lower affinity than human insulin”. The IC50 at human IR-A [1] (SPA, WGA PVT PEI beads, 2 µg membranes from CHO cells overexpressing IR-A, 100 pmol/L A14[^125I]-insulin, pH 7.8, 12 h, 23°C, means ± SEM, at least three times, read-out: IR-A affinity IC50) is 6.2 ± 0.34 nM; on human IR-B [2] (SPA, WGA PVT PEI beads, 2 µg membranes from CHO cells overexpressing IR-B, 100 pmol/L A14[^125I]-insulin, pH 7.8, 12 h, 23°C, means ± SEM, at least three times, read-out: IR-B affinity IC50), 46.6 ± 7.8 nM; at human IGF1R it was 6.68 ± 2.24 nM. Also, the “IR-B binding relative to IGF-1 and human insulin” value in the experiment on human IR-B [2] (IR-B, in words) is recorded as “higher affinity than IGF-1 but with lower affinity than human insulin”. The values for the EC50 with human IR-A [3] and in the experiment with human IR-B [4] were 85.4 ± 5.5 nM and 384 ± 68.4 nM, respectively.

Consider insulin detemir, for which, in experiment [5], the mitogenic potency entry was “increased mitogenic potency”.

As usually defined, the IC50 is the concentration that inhibits the measured activity by half. As a reminder, the EC50 is the concentration at which the effect is half-maximal.
